In US20150175599A1, “FAAH Inhibitors” (Ironwood Pharmaceuticals, Inc., priority 2010, published 2015):
pIC50: −log10 of the molar value.

Biological target: T1, human cannabinoid receptor, CB1 (Homo sapiens, UniProt P21554)
T1 construct: (cDNA clone) CNR01L000; membranes prepared from it
Assay: Human CB1 cannabinoid receptor radioligand binding assay ([3H]-CP 55,940)
Conditions: Table 4
Description: cDNA expression clones for human CB1 (hCB 1, Genbank Accession No. AY225225) expressed in vector pcDNA3.1+ were purchased from UMR cDNA Resource Center, Rolla, Mo. (Clone ID CNR01L000 for hCB 1).
Stable, HEK-293-derived cell lines that recombinantly express hCB 1 were established. In brief, the clone hCB 1 (CNR1L) was transfected into human embryonic kidney cells (HEK-293) using Lipofectamine 2000 (Gibco, Cat#11668-019) according to the manufacturer's protocol. Transfected clones were isolated by single colony purification and clones were screened for receptor expression using a whole cell, ^3H-CP 55,940 radioligand binding assay. HEK-293 stable cells were maintained in Dulbecco's modified Eagles medium (DMEM) containing 10% fetal bovine serum, 2 mM L-glutamine and 0.5 mg/mL G-418.
Membranes were isolated from transfected cells as follows. Monolayers of cultured cells were washed twice with phosphate-buffered saline (PBS). […] Protein concentration of membrane suspensions were measured by Bradford Protein Assay using bovine serum albumin as the standard (BioRad catalog #500-0006). […]
Radioligand binding assays were performed by incubating membranes (2-10 ug protein) prepared from HEK-293 cells expressing recombinant human cannabinoid receptor, CB1, at room temperature with 0.5 nM cannabinoid receptor agonist, [^3H]-CP 55,940 (Perkin Elmer, catalog #NET1051) in 0.2 mL of binding buffer (50 mM Tris-HCl, pH 7.5, 5 mM MgCl2, 2.5 mM EDTA) and 0.1% fatty acid free bovine serum albumin (Sigma Cat. #A0821) for 90 minutes. […] The radioactivity bound to the filters was counted with 0.05 mL of liquid scintillant (UltraGold MV, PerkinElmer catalog #6013159) in a scintillation counter (Perkin Elmer Microbeta instrument). Nonspecific binding was determined in the presence of unlabeled 1 uM CP 55,940 (Sigma Aldrich, catalog #C1112). Binding data were analyzed using GraphPad Prism (GraphPad Software, Inc. San Diego, Calif.).

T1 sequence (P21554 whole entry): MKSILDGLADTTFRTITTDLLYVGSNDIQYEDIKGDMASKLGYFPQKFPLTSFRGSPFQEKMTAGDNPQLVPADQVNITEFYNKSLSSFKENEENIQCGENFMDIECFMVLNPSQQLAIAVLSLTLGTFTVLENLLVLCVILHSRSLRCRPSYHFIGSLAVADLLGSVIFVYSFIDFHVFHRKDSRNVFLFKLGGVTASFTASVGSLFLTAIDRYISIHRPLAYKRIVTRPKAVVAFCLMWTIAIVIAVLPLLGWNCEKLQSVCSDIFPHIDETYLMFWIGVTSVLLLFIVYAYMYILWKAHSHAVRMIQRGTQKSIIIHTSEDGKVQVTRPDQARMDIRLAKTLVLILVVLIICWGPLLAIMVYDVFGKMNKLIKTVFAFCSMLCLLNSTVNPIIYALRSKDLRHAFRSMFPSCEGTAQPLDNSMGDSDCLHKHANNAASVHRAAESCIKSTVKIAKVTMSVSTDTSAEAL

## COc1cc(NC(=O)C(=O)c2c(C)n(Cc3ncc(Cl)cc3F)c3cc(F)c(OC)cc23)ccn1 [Compound 99, 2-(1-((5-chloro-3-fluoropyridin-2-yl)methyl)-6-fluoro-5-methoxy-2-methyl-1H-indol-3-yl)-N-(2-methoxypyridin-4-yl)-2-oxoacetamide]
  pIC50: 5.00 to 6.00

## COc1cc(NC(=O)C(=O)c2c(C)n(Cc3ncc(F)cc3F)c3cc(F)c(OC)cc23)ccn1 [Compound 101, 2-(1-((3,5-difluoropyridin-2-yl)methyl)-6-fluoro-5-methoxy-2-methyl-1H-indol-3-yl)-N-(2-methoxypyridin-4-yl)-2-oxoacetamide]
  pIC50: 5.00 to 6.00

## COc1ccc2c(c1)c(C(=O)C(=O)Nc1ccnc(OC)c1)c(C)n2Cc1ncc(Cl)cc1OC [Compound 100, 2-(1-((5-chloro-3-methoxypyridin-2-yl)methyl)-5-methoxy-2-methyl-1H-indol-3-yl)-N-(2-methoxypyridin-4-yl)-2-oxoacetamide]
  pIC50: < 5.00
